In PubChem BioAssay AID256 (DTP/NCI, 2004):
Where “and” joins values, the source holds several entries; their conditions need not be identical. Identical values can stand only once. Inconclusive results and toxic doses are left out. Rule for the calls: active = survival T/C of 150% or more; inactive = T/C below 125% in these data.

System: CD2F1 mice, L1210 leukemia ip, survival T/C
Test: NCI In Vivo Anticancer Drug Screen. Data for tumor model L1210 Leukemia (intraperitoneal) in CD2F1 (CDF1) mice
Details: higher = longer survival
Procedure, shortened: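 Each value reflects a quotient of treated over vehicle control outcomes in mice with a transplanted tumor.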

Measured: T/C

COc1cccc2c1C(=O)c1c(O)c3c(c(O)c1C2=O)C[C@@](O)(C(C)=O)C[C@@H]3OC1CC(N)C(O)C(C)O1 (stereo partly specified)
inactive: endpoint: mean survival time, dose: 0.06 mg/kg/injection, schedule: Q01DX009 (ip), vehicle: saline 103 % of control | endpoint: mean survival time, dose: 0.13 mg/kg/injection, schedule: Q01DX009 (ip), vehicle: saline 103 % of control | endpoint: mean survival time, dose: 0.2 mg/kg/injection, schedule: Q01DX009 (ip), vehicle: saline 105 % of control | endpoint: mean survival time, dose: 0.2 mg/kg/injection, schedule: Q01DX009 (ip), vehicle: water 100 % of control and 103 % of control and 108 % of control | endpoint: mean survival time, dose: 0.25 mg/kg/injection, schedule: Q01DX005 (ip), vehicle: water 101 % of control | endpoint: mean survival time, dose: 0.25 mg/kg/injection, schedule: Q01DX009 (ip), vehicle: saline 113 % of control and 120 % of control and 105 % of control | endpoint: mean survival time, dose: 0.39 mg/kg/injection, schedule: Q01DX009 (ip), vehicle: saline 119 % of control and 106 % of control | endpoint: mean survival time, dose: 0.39 mg/kg/injection, schedule: Q01DX009 (ip), vehicle: water 101 % of control and 110 % of control and 112 % of control | endpoint: mean survival time, dose: 0.5 mg/kg/injection, schedule: Q01DX005 (ip), vehicle: water 117 % of control and 108 % of control and 110 % of control | endpoint: mean survival time, dose: 0.5 mg/kg/injection, schedule: Q04DX003 (ip), vehicle: water 116 % of control and 98 % of control | endpoint: mean survival time, dose: 0.78 mg/kg/injection, schedule: Q01DX009 (ip), vehicle: saline 116 % of control | endpoint: mean survival time, dose: 0.78 mg/kg/injection, schedule: Q01DX009 (ip), vehicle: water 117 % of control and 120 % of control and 103 % of control | endpoint: mean survival time, dose: 1.0 mg/kg/injection, schedule: Q01DX005 (ip), vehicle: water 118 % of control and 112 % of control | endpoint: mean survival time, dose: 1.0 mg/kg/injection, schedule: Q03DX003 (ip), vehicle: saline 119 % of control | endpoint: mean survival time, dose: 1.0 mg/kg/injection, schedule: Q04DX003 (ip), vehicle: water 105 % of control | endpoint: mean survival time, dose: 1.08 mg/kg/injection, schedule: Q04DX003 (ip), vehicle: saline 120 % of control | endpoint: mean survival time, dose: 1.25 mg/kg/injection, schedule: Q07DX Z (oral), vehicle: clinical formulation 97 % of control | endpoint: mean survival time, dose: 1.25 mg/kg/injection, schedule: Q#B X Z (oral), vehicle: clinical formulation 102 % of control | endpoint: mean survival time, dose: 1.56 mg/kg/injection, schedule: Q01DX009 (ip), vehicle: saline 117 % of control | endpoint: mean survival time, dose: 1.56 mg/kg/injection, schedule: Q01DX009 (ip), vehicle: water 121 % of control and 106 % of control | endpoint: mean survival time, dose: 1.68 mg/kg/injection, schedule: Q01DX001 (ip), vehicle: water 124 % of control | endpoint: mean survival time, dose: 1.8 mg/kg/injection, schedule: Q04DX003 (ip), vehicle: saline 120 % of control | endpoint: mean survival time, dose: 2.0 mg/kg/injection, schedule: Q01DX005 (ip), vehicle: water 121 % of control and 124 % of control | endpoint: mean survival time, dose: 2.0 mg/kg/injection, schedule: Q03DX003 (ip), vehicle: saline 122 % of control | endpoint: mean survival time, dose: 2.0 mg/kg/injection, schedule: Q04DX003 (ip), vehicle: water 123 % of control and 102 % of control | endpoint: mean survival time, dose: 2.5 mg/kg/injection, schedule: Q01DX001 (ip), vehicle: water 118 % of control and 123 % of control and 112 % of control | endpoint: mean survival time, dose: 2.5 mg/kg/injection, schedule: Q07DX Z (oral), vehicle: clinical formulation 97 % of control | endpoint: mean survival time, dose: 2.5 mg/kg/injection, schedule: Q#B X Z (oral), vehicle: clinical formulation 94 % of control | endpoint: mean survival time, dose: 3.0 mg/kg/injection, schedule: Q01DX009 (ip), vehicle: saline 117 % of control | endpoint: mean survival time, dose: 3.0 mg/kg/injection, schedule: Q04DX003 (ip), vehicle: saline 115 % of control | endpoint: mean survival time, dose: 3.13 mg/kg/injection, schedule: Q01DX009 (ip), vehicle: water 117 % of control and 96 % of control | endpoint: mean survival time, dose: 4.0 mg/kg/injection, schedule: Q01DX005 (ip), vehicle: water 120 % of control and 105 % of control | endpoint: mean survival time, dose: 4.0 mg/kg/injection, schedule: Q01DX007 (ip), vehicle: saline 110 % of control | endpoint: mean survival time, dose: 4.0 mg/kg/injection, schedule: Q03DX003 (ip), vehicle: saline 116 % of control | endpoint: mean survival time, dose: 4.0 mg/kg/injection, schedule: Q04DX003 (ip), vehicle: water 100 % of control | endpoint: mean survival time, dose: 4.67 mg/kg/injection, schedule: Q01DX009 (ip), vehicle: water 108 % of control | endpoint: mean survival time, dose: 5.0 mg/kg/injection, schedule: Q01DX001 (ip), vehicle: water 120 % of control and 104 % of control | endpoint: mean survival time, dose: 5.0 mg/kg/injection, schedule: Q04DX003 (ip), vehicle: saline 120 % of control | endpoint: mean survival time, dose: 5.0 mg/kg/injection, schedule: Q07DX Z (oral), vehicle: clinical formulation 97 % of control | endpoint: mean survival time, dose: 5.0 mg/kg/injection, schedule: Q#B X Z (oral), vehicle: clinical formulation 97 % of control | endpoint: mean survival time, dose: 6.25 mg/kg/injection, schedule: Q01DX009 (ip), vehicle: saline 97 % of control | endpoint: mean survival time, dose: 8.0 mg/kg/injection, schedule: Q01DX001 (ip), vehicle: water 109 % of control | endpoint: mean survival time, dose: 8.0 mg/kg/injection, schedule: Q01DX009 (ip), vehicle: saline 100 % of control | endpoint: mean survival time, dose: 8.0 mg/kg/injection, schedule: Q04DX003 (ip), vehicle: saline 119 % of control | endpoint: mean survival time, dose: 8.0 mg/kg/injection, schedule: Q04DX003 (ip), vehicle: water 123 % of control | endpoint: mean survival time, dose: 10.0 mg/kg/injection, schedule: Q01DX001 (ip), vehicle: water 118 % of control and 112 % of control | endpoint: mean survival time, dose: 10.0 mg/kg/injection, schedule: Q07DX Z (oral), vehicle: clinical formulation 102 % of control | endpoint: mean survival time, dose: 10.0 mg/kg/injection, schedule: Q#B X Z (oral), vehicle: clinical formulation 108 % of control | endpoint: mean survival time, dose: 20.0 mg/kg/injection, schedule: Q01DX001 (ip), vehicle: water 89 % of control and 96 % of control | endpoint: mean survival time, dose: 20.0 mg/kg/injection, schedule: Q07DX Z (oral), vehicle: clinical formulation 100 % of control | endpoint: mean survival time, dose: 20.0 mg/kg/injection, schedule: Q#B X Z (oral), vehicle: clinical formulation 94 % of control | endpoint: mean survival time, dose: 40.0 mg/kg/injection, schedule: Q01DX001 (ip), vehicle: saline 62 % of control | endpoint: mean survival time, dose: 40.0 mg/kg/injection, schedule: Q07DX Z (oral), vehicle: clinical formulation 103 % of control | endpoint: mean survival time, dose: 40.0 mg/kg/injection, schedule: Q#B X Z (oral), vehicle: clinical formulation 103 % of control | endpoint: mean survival time, dose: 39.0 micrograms/kg/injection, schedule: Q01DX010 (oral), vehicle: saline 102 % of control | endpoint: mean survival time, dose: 78.0 micrograms/kg/injection, schedule: Q01DX010 (oral), vehicle: saline 102 % of control | endpoint: mean survival time, dose: 156.0 micrograms/kg/injection, schedule: Q01DX010 (oral), vehicle: saline 98 % of control | endpoint: mean survival time, dose: 313.0 micrograms/kg/injection, schedule: Q01DX010 (oral), vehicle: saline 102 % of control | endpoint: mean survival time, dose: 625.0 micrograms/kg/injection, schedule: Q01DX010 (oral), vehicle: saline 104 % of control | endpoint: mean survival time, dose: 1250.0 micrograms/kg/injection, schedule: Q01DX010 (oral), vehicle: saline 101 % of control | endpoint: median survival time, dose: 0.25 mg/kg/injection, schedule: Q01DX005 (iv), vehicle: water 112 % of control | endpoint: median survival time, dose: 0.5 mg/kg/injection, schedule: Q01DX005 (iv), vehicle: water 100 % of control | endpoint: median survival time, dose: 0.5 mg/kg/injection, schedule: Q04DX003 (ip), vehicle: water 99 % of control | endpoint: median survival time, dose: 1.0 mg/kg/injection, schedule: Q01DX005 (iv), vehicle: water 106 % of control | endpoint: median survival time, dose: 1.0 mg/kg/injection, schedule: Q04DX003 (ip), vehicle: water 99 % of control | endpoint: median survival time, dose: 2.0 mg/kg/injection, schedule: Q01DX005 (iv), vehicle: water 112 % of control | endpoint: median survival time, dose: 2.0 mg/kg/injection, schedule: Q04DX003 (ip), vehicle: water 100 % of control | endpoint: median survival time, dose: 4.0 mg/kg/injection, schedule: Q04DX003 (ip), vehicle: water 107 % of control | endpoint: median survival time, dose: 16.0 mg/kg/injection, schedule: Q04DX003 (ip), vehicle: water 109 % of control

Nc1nc(N)c2nc(CNc3ccc(C(=O)NC(CCC(=O)NC(CCC(=O)O)C(=O)O)C(=O)O)cc3)cnc2n1 (stereo unspecified)
inactive: endpoint: mean survival time, dose: 0.7 mg/kg/injection, schedule: Q01DX009 (ip), vehicle: sodium bicarbonate 96 % of control | endpoint: mean survival time, dose: 1.1 mg/kg/injection, schedule: Q01DX009 (ip), vehicle: sodium bicarbonate 92 % of control

CCCCOP(=O)(OCCCC)Oc1cccc2ccccc12
inactive: endpoint: mean survival time, dose: 100.0 mg/kg/injection, schedule: Q04DX002 (ip), vehicle: saline with Tween-80 91 % of control | endpoint: mean survival time, dose: 200.0 mg/kg/injection, schedule: Q04DX002 (ip), vehicle: saline with Tween-80 95 % of control | endpoint: mean survival time, dose: 400.0 mg/kg/injection, schedule: Q04DX002 (ip), vehicle: saline with Tween-80 106 % of control

CCC(C)C(CO)c1ccccc1 (stereo unspecified)
inactive: endpoint: mean survival time, dose: 50.0 mg/kg/injection, schedule: Q01DX009 (ip), vehicle: saline with Tween-80 98 % of control | endpoint: mean survival time, dose: 100.0 mg/kg/injection, schedule: Q01DX009 (ip), vehicle: saline with Tween-80 88 % of control
